In patent US20230024096A1, “BIFUNCTIONAL COMPOUNDS FOR THE TREATMENT OF CANCER” (Hoffmann-La Roche Inc., priority 2019, published 2023):

Biological target: T1, SMARCA2 (Homo sapiens, UniProt P51531)
T1 construct: endogenous in cells; host or cells: HT1080 (CRISPR HiBiT knock-in clone, generated in house)
Assay: SMARCA2 HiBiT degradation assay (cellular)
Format: cell-based
Details: table head names A549; for DC50: 6 h incubation, HiBiT-tagged SMARCA2, luminescence read-out, read-out: HiBit A549 SMARCA2 IP (nM) 6 h; for Emax: A549, 6 h incubation, Emax = amount of residual protein remaining in the cell following compound treatment

T1 sequence (P51531 whole entry): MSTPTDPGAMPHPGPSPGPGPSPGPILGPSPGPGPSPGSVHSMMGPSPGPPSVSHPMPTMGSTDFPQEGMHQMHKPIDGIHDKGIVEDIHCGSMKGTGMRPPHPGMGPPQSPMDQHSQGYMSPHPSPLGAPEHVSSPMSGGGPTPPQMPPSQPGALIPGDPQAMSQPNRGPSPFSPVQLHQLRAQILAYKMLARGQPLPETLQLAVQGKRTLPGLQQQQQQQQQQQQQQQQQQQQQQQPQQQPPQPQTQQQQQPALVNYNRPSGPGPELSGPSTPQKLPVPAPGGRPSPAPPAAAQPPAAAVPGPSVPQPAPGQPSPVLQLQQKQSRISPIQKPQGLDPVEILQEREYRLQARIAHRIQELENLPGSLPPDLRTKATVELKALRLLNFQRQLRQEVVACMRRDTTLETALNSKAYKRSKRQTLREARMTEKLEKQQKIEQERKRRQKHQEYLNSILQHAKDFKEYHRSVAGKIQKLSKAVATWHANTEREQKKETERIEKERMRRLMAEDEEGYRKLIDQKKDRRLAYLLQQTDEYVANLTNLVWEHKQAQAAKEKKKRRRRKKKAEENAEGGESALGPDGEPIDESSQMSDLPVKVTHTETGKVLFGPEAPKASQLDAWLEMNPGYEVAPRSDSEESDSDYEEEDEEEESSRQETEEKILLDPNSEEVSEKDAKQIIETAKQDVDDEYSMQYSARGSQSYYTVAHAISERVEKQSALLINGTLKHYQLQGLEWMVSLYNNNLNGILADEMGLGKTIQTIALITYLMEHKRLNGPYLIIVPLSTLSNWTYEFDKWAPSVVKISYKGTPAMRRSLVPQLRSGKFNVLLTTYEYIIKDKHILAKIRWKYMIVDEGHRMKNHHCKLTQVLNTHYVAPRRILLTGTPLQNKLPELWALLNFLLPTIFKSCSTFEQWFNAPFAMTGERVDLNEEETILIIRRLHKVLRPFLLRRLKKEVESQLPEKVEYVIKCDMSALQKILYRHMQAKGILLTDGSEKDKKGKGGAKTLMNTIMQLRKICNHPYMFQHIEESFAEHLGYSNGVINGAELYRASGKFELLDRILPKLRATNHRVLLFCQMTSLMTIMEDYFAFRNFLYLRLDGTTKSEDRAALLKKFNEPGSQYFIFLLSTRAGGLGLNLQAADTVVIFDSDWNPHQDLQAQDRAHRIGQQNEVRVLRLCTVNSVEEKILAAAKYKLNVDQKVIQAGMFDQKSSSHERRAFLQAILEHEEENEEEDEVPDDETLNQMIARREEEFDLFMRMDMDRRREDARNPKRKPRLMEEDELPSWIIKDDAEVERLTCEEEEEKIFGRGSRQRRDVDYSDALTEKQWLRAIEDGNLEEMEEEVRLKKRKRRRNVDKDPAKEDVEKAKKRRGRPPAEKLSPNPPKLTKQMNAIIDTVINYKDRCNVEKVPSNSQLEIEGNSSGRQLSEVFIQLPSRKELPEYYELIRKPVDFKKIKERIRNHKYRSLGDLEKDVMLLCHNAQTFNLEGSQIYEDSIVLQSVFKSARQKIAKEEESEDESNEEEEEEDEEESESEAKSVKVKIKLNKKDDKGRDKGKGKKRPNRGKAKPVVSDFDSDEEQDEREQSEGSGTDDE

| DC50 | Emax | SMILES |
| --- | --- | --- |
| 90 nM | 46% | Nc1nnc(-c2ccccc2O)cc1N1CCC(NC(=O)CCCN2CCC(c3ccc(NC4CCC(=O)NC4=O)cc3)CC2)(c2ccccc2)CC1 (centres unmarked) [Example 91, N-[1-[3-amino-6-(2-hydroxyphenyl)pyridazin-4-yl]-4-phenyl-4-piperidyl]-4-[4-[4-[(2,6-dioxo-3-piperidyl)amino]phenyl]-1-piperidyl]butanamide] |
| 187 nM | 46% | Nc1nnc(-c2ccccc2O)cc1N1CCC(C(=O)N2CCC(C(=O)N3CCN(c4ccc5c(c4)C(=O)N(C4CCC(=O)NC4=O)C5=O)CC3)CC2)(c2ccccc2)CC1 (centres unmarked) [Example 178, 5-(4-(1-(1-(3-amino-6-(2-hydroxyphenyl)pyridazin-4-yl)-4-phenylpiperidine-4-carbonyl)piperidine-4-carbonyl)piperazin-1-yl)-2-(2,6-dioxopiperidin-3-yl)isoindoline-1,3-dione] |
| 193 nM | 50% | Nc1nnc(-c2ccccc2O)cc1N1CCC(C(=O)N2CC3(CCN(C(=O)CCC4CCN(c5ccc6c(c5)C(=O)N(C5CCC(=O)NC5=O)C6=O)CC4)C3)C2)(c2ccccc2)CC1 (centres unmarked) [Example 188, 5-(4-(3-(2-(1-(3-amino-6-(2-hydroxyphenyl)pyridazin-4-yl)-4-phenylpiperidine-4-carbonyl)-2,6-diazaspiro[3.4]octan-6-yl)-3-oxopropyl)piperidin-1-yl)-2-(2,6-dioxopiperidin-3-yl)isoindoline-1,3-dione] |
| 55 nM | 30% | CC(Nc1cccc2c1C(=O)N(C1CCC(=O)NC1=O)C2=O)c1cn(CCCCCCCCCN2CCN(c3ccc(N4CCCC(Oc5cc(-c6ccccc6O)nnc5N)C4)cc3)CC2)nn1 (centres unmarked) [Example 89, 4-[1-[1-[9-[4-[4-[3-[3-amino-6-(2-hydroxyphenyl)pyridazin-4-yl]oxy-1-piperidyl]phenyl]piperazin-1-yl]nonyl]triazol-4-yl]ethylamino]-2-(2,6-dioxo-3-piperidyl)isoindoline-1,3-dione] |
| 66 nM | 60% | Nc1nnc(-c2ccccc2O)cc1N1CCN(c2cccc(OCCN3CCN(C(=O)CCCCCCNc4cccc5c4C(=O)N(C4CCC(=O)NC4=O)C5=O)CC3)c2)C2(CC2)C1 (centres unmarked) [Example 5, 4-[[7-[4-[2-[3-[7-[3-amino-6-(2-hydroxyphenyl)pyridazin-4-yl]-4,7-diazaspiro[2.5]octan-4-yl]phenoxy]ethyl]piperazin-1-yl]-7-oxo-heptyl]amino]-2-(2,6-dioxo-3-piperidyl)isoindoline-1,3-dione] |
| 77 nM | 57% | Nc1nnc(-c2ccccc2O)cc1N1CCC(CNC(=O)CC2CCN(c3ccc4c(c3)C(=O)N(C3CCC(=O)NC3=O)C4=O)CC2)(c2ccccc2)CC1 (centres unmarked) [Example 77, N-((1-(3-amino-6-(2-hydroxyphenyl)pyridazin-4-yl)-4-phenylpiperidin-4-yl)methyl)-2-(1-(2-(2,6-dioxopiperidin-3-yl)-1,3-dioxoisoindolin-5-yl)piperidin-4-yl)acetamide] |
| 47 nM | 26% | Nc1nnc(-c2ccccc2O)cc1N1CCC(C(=O)N2CC3(CN(C(=O)C4CCN(c5ccc6c(c5)C(=O)N(C5CCC(=O)NC5=O)C6=O)CC4)C3)C2)(c2ccccc2)CC1 (centres unmarked) [Example 121, 5-(4-(6-(1-(3-amino-6-(2-hydroxyphenyl)pyridazin-4-yl)-4-phenylpiperidine-4-carbonyl)-2,6-diazaspiro[3.3]heptane-2-carbonyl)piperidin-1-yl)-2-(2,6-dioxopiperidin-3-yl)isoindoline-1,3-dione] |
| 275 nM | 42% | Nc1nnc(-c2ccccc2O)cc1O[C@H]1CCCN(c2ccc(N3CCN(CC4CCN(C(=O)CCCCn5cc(COc6cccc7c6C(=O)N(C6CCC(=O)NC6=O)C7=O)nn5)CC4)CC3)cc2)C1 (mixture of isomers) [Example 140, 2-(2,6-dioxo-3-piperidyl)-4-[[1-[5-oxo-5-[4-[[4-[4-[rac-(3S)-3-[3-amino-6-(2-hydroxyphenyl)pyridazin-4-yl]oxy-1-piperidyl]phenyl]piperazin-1-yl]methyl]-1-piperidyl]pentyl]triazol-4-yl]methoxy]isoindoline-1,3-dione] |
| 718 nM | 63% | Nc1nnc(-c2ccccc2O)cc1N1CC(Oc2cccc(N3CCN(C(=O)CCCCCCCCCNc4cccc5c4C(=O)N(C4CCC(=O)NC4=O)C5=O)CC3)c2)C1 (centres unmarked) [Example 39, 4-[[10-[4-[3-[1-[3-amino-6-(2-hydroxyphenyl)pyridazin-4-yl]azetidin-3-yl]oxyphenyl]piperazin-1-yl]-10-oxo-decyl]amino]-2-(2,6-dioxo-3-piperidyl)isoindoline-1,3-dione] |
| 177 nM | 60% | Nc1nnc(-c2ccccc2O)cc1OC1CCCN(c2ccc(N3CCN(C(=O)CCCCCCCCn4cc(CNc5cccc6c5C(=O)N(C5CCC(=O)NC5=O)C6)nn4)CC3)cc2)C1 (centres unmarked) [Example 111, 3-[7-[[1-[9-[4-[4-[3-[3-amino-6-(2-hydroxyphenyl)pyridazin-4-yl]oxy-1-piperidyl]phenyl]piperazin-1-yl]-9-oxo-nonyl]triazol-4-yl]methylamino]-1-oxo-isoindolin-2-yl]piperidine-2,6-dione] |

| SMILES | DC50 | Emax |
| --- | --- | --- |
| Nc1nnc(-c2ccccc2O)cc1N1CC2CCC(C1)N2c1cccc(OCCN2CCN(C(=O)CCC(=O)N3CCC(Nc4cccc5c4C(=O)N(C4CCC(=O)NC4=O)C5=O)CC3)CC2)c1 (racemic) [Example 20, rac-4-[[1-[4-[4-[2-[3-[3-[3-amino-6-(2-hydroxyphenyl)pyridazin-4-yl]-3,8-diazabicyclo[3.2.1]octan-8-yl]phenoxy]ethyl]piperazin-1-yl]-4-oxo-butanoyl]-4-piperidyl]amino]-2-(2,6-dioxo-3-piperidyl)isoindoline-1,3-dione] | 168 nM | 49% |
| Nc1nnc(-c2ccccc2O)cc1N1CC2CCC(C1)N2c1ccccc1OCCN1CCN(c2ccc3c(c2)C(=O)N(C2CCC(=O)NC2=O)C3=O)CC1 (racemic) [Example 144, rac-5-[4-[2-[2-[3-[3-amino-6-(2-hydroxyphenyl)pyridazin-4-yl]-3,8-diazabicyclo[3.2.1]octan-8-yl]phenoxy]ethyl]piperazin-1-yl]-2-(2,6-dioxo-3-piperidyl)isoindoline-1,3-dione] | 797 nM | 75% |
| CN(c1cccc2c1C(=O)N(C1CCC(=O)NC1=O)C2=O)C1CCN(C(=O)CCC(=O)N2CCN(CCOc3cccc(N4C5CCC4CN(c4cc(-c6ccccc6O)nnc4N)C5)c3)CC2)CC1 (racemic) [Example 21, rac-4-[[1-[4-[4-[2-[3-[3-[3-amino-6-(2-hydroxyphenyl)pyridazin-4-yl]-3,8-diazabicyclo[3.2.1]octan-8-yl]phenoxy]ethyl]piperazin-1-yl]-4-oxo-butanoyl]-4-piperidyl]-methyl-amino]-2-(2,6-dioxo-3-piperidyl)isoindoline-1,3-dione] | 118 nM | 29% |
| Nc1nnc(-c2ccccc2O)cc1N1CC2CCC(C1)N2c1nccc(OCCN2CCN(CCCOC3CCN(c4ccc5c(c4)C(=O)N(C4CCC(=O)NC4=O)C5=O)CC3)CC2)n1 (racemic) [Example 161, rac-5-[4-[3-[4-[2-[2-[3-[3-Amino-6-(2-hydroxyphenyl)pyridazin-4-yl]-3,8-diazabicyclo[3.2.1]octan-8-yl]pyrimidin-4-yl]oxyethyl]piperazin-1-yl]propoxy]-1-piperidyl]-2-(2,6-dioxo-3-piperidyl)isoindoline-1,3-dione] | 33 nM | 30% |
| Nc1nnc(-c2ccccc2O)cc1N1CC2CCC(C1)N2c1cccc(CN2CCN(C(=O)CC3CCN(c4ccc5c(c4)C(=O)N(C4CCC(=O)NC4=O)C5=O)CC3)CC2)c1 (racemic) [Example 48, rac-5-[4-[2-[4-[[3-[3-[3-Amino-6-(2-hydroxyphenyl)pyridazin-4-yl]-3,8-diazabicyclo[3.2.1]octan-8-yl]phenyl]methyl]piperazin-1-yl]-2-oxo-ethyl]-1-piperidyl]-2-(2,6-dioxo-3-piperidyl)isoindoline-1,3-dione] | 15 nM | 45% |
| Nc1nnc(-c2ccccc2O)cc1N1CC2CCC(C1)N2c1cccc(CN2CCC(C(=O)N3CCC(c4ccc(NC5CCC(=O)NC5=O)cc4)CC3)CC2)c1 (racemic) [Example 93, rac-3-[4-[1-[1-[[3-[3-[3-amino-6-(2-hydroxyphenyl)pyridazin-4-yl]-3,8-diazabicyclo[3.2.1]octan-8-yl]phenyl]methyl]piperidine-4-carbonyl]-4-piperidyl]anilino]piperidine-2,6-dione] | 9 nM | 52% |
| Nc1nnc(-c2ccccc2O)cc1N1CC2CCC(C1)N2c1cccc(OCCN2CCN(CCCOC3CCN(c4ccc5c(c4)C(=O)N(C4CCC(=O)NC4=O)C5=O)CC3)CC2)c1 (racemic) [Example 36, rac-5-[4-[3-[4-[2-[3-[3-[3-amino-6-(2-hydroxyphenyl)pyridazin-4-yl]-3,8-diazabicyclo[3.2.1]octan-8-yl]phenoxy]ethyl]piperazin-1-yl]propoxy]-1-piperidyl]-2-(2,6-dioxo-3-piperidyl)isoindoline-1,3-dione] | 16 nM | 27% |
| Nc1nnc(-c2ccccc2O)cc1N1CC2CCC(C1)N2c1cccc(OCCN2CCN(CCCC3CCN(c4ccc5c(c4)C(=O)N(C4CCC(=O)NC4=O)C5=O)CC3)CC2)c1 (racemic) [Example 143, rac-5-[4-[3-[4-[2-[3-[3-[3-amino-6-(2-hydroxyphenyl)pyridazin-4-yl]-3,8-diazabicyclo[3.2.1]octan-8-yl]phenoxy]ethyl]piperazin-1-yl]propyl]-1-piperidyl]-2-(2,6-dioxo-3-piperidyl)isoindoline-1,3-dione] | 2 nM | 8% |
| Nc1nnc(-c2ccccc2O)cc1N1CC2CCC(C1)N2c1cccc(CN2CCC(C(=O)N3CCN(c4ccc5c(c4)C(=O)N(C4CCC(=O)NC4=O)C5=O)CC3)CC2)c1 (racemic) [Example 95, rac-5-[4-[1-[[3-[3-[3-amino-6-(2-hydroxyphenyl)pyridazin-4-yl]-3,8-diazabicyclo[3.2.1]octan-8-yl]phenyl]methyl]piperidine-4-carbonyl]piperazin-1-yl]-2-(2,6-dioxo-3-piperidyl)isoindoline-1,3-dione] | 13 nM | 25% |
